Assay results reported in US10028933B2, “Compositions and methods for inhibiting the growth of multi-drug resistant microbes” (priority 2015, dated 2018).
Entries after “also recorded” stand apart in the source; their conditions may differ.

Columns and labels:
[1] = long term oral exposures up to 33 weeks; cited from earlier work
[2] = system: Francisella tularensis; settings: cited from earlier work
[3] = system: Salmonella Typhimurium; settings: cited from earlier work
[4] = preclinical studies; cited from earlier work
[5] = system: P. aeruginosa; assay: direct bacterial killing assay in media alone of CF clinical P. aeruginosa isolate (24 hours); settings: media devoid of human macrophages or neutrophils, n=3
[6] = system: B. cenocepacia; assay: direct bacterial killing assay in media alone (optical absorbance density over 24 hours)
[7] = system: human CF and non-CF MDMs; assay: macrophage viability assay at 24 h
[8] = system: MRSA; assay: bacterial killing assay of CF clinical MRSA isolate in media (optical absorbance density, 24 hours); format: cell-based
[9] = system: B. cenocepacia strain k56-2; settings: 5 μM AR-13 alone
[10] = system: P. aeruginosa; settings: AR-13 alone

SMILES	safety profile in phase I study [1]	antibacterial activity against intracellular Francisella tularensis in macrophages [2]	antibacterial activity against intracellular Salmonella Typhimurium in macrophages [3]	accumulation in tissues relative to blood level concentrations [4]	blood brain barrier penetration [4]	direct killing of P. aeruginosa in media [5]	reduction of optical absorbance density of B. cenocepacia compared to no treatment ([6]; AR-13 alone vs B. cenocepacia alone, media, 24 hour period, n=3)	direct killing / bacterial growth of B. cenocepacia in media alone ([6]; media alone, 24 hours, AR-13 5 μM)	AR-13 concentrations tolerated by CF and non-CF macrophages and neutrophils ([7]; CF and non-CF macrophages and neutrophils)	macrophage viability ([7]; human CF and non-CF MDMs, uninfected or infected with B. cenocepacia, 24 h)	AR-13 concentrations resulting in increased toxicity ([7]; uninfected MDMs)	killing of MRSA in media ([8]; 24 hours, media)	reduction of optical absorbance density of MRSA compared to no treatment ([8]; CF clinical MRSA isolate, 24 hour period, n=3)	AR-13 concentration of greatest efficacy against MRSA (dose titration) ([8]; dose titration 5, 2.5, 1.25 μM, 24 hours, n=3) [µM]	reduction in B. cenocepacia burden in infected CF and non-CF macrophages [9] [%]	reduction in P. aeruginosa burden in CF neutrophils ([10]; CF neutrophils) [%]	reduction in P. aeruginosa burden in non-CF neutrophils ([10]; non-CF neutrophils) [%]
NCC(=O)Nc1ccc(-n2nc(C(F)(F)F)cc2-c2ccc3c(ccc4ccccc43)c2)cc1 [AR-12]	acceptable safety profile	antibacterial activity	antibacterial activity	exceeding the blood level concentrations by several fold	rapid blood brain barrier penetration												
NS(=O)(=O)Nc1ccc(-n2nc(C(F)(F)F)cc2-c2ccc3c(ccc4ccccc43)c2)cc1 [AR-13, N-{4-[5-(Phenanthren-2-yl)-3-(trifluoromethyl)-1H-pyrazol-1-yl]phenyl}sulfuric diamide]						did not demonstrate direct killing; also recorded: did not enhance bacterial killing in media; also recorded: no direct effect	about 1.3 fold	significant reduction in bacterial growth; also recorded: direct killing effect	up to 10 μM	no significant differences in cell viability; also recorded: does not impact macrophage viability	above 10 μM	bacterial optical density increases as the dose of AR-13 decreases	about 1.3 fold	5	23	70	66
